In the NIST ThermoML archive (doi:10.1016/j.jct.2015.09.024):
Numbers after ± are expanded uncertainties.

Settings: Liquid, ATR infrared spectroscopy

O=C=O [carbon dioxide]
vapor or sublimation pressure (295.45 K): 6020 ± 490 kPa | vapor or sublimation pressure (297.05 K): 6240 ± 500 kPa | vapor or sublimation pressure (299.05 K): 6520 ± 530 kPa | vapor or sublimation pressure (302.65 K): 7090 ± 570 kPa | vapor or sublimation pressure (303.25 K): 7180 ± 580 kPa
